According to ChEMBL document CHEMBL5316269, “Rational Design of a New RXR Agonist Scaffold Enabling Single-Subtype Preference for RXRα, RXRβ, and RXRγ” (J Med Chem, 2023):
pEC50, pKd: −log10 of the molar value.

Experiments:
[1] = biological target: T1, Retinoic acid receptor RXR-alpha (Homo sapiens, UniProt P19793); assay: Agonist activity at human GAL4-fused RXRalpha LBD expressed in human HEK293T cells cotransfected with pFR-Luc and pRL-SV40 assessed as increase in luciferase activity incubated for 16 hrs by Dual-Glo luciferase assay; format: cell-based
T1 sequence (P19793 whole entry): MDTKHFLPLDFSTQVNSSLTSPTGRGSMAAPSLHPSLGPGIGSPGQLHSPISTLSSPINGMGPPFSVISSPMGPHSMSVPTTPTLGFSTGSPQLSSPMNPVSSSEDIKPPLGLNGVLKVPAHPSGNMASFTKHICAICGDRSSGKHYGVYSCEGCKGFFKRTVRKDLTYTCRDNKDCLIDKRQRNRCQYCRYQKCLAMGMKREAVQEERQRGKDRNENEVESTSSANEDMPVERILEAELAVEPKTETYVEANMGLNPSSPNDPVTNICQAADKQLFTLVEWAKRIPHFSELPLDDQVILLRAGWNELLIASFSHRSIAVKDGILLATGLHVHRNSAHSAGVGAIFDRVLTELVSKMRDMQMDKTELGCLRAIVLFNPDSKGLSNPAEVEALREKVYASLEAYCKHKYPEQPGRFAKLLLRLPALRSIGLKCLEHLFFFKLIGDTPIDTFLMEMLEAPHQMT

[2] = biological target: T2, Retinoic acid receptor RXR-gamma (Homo sapiens, UniProt P48443); assay: Agonist activity at human GAL4-fused RXRgamma LBD expressed in human HEK293T cells cotransfected with pFR-Luc and pRL-SV40 assessed as increase in luciferase activity incubated for 16 hrs by Dual-Glo luciferase assay; format: cell-based
T2 sequence (P48443 whole entry): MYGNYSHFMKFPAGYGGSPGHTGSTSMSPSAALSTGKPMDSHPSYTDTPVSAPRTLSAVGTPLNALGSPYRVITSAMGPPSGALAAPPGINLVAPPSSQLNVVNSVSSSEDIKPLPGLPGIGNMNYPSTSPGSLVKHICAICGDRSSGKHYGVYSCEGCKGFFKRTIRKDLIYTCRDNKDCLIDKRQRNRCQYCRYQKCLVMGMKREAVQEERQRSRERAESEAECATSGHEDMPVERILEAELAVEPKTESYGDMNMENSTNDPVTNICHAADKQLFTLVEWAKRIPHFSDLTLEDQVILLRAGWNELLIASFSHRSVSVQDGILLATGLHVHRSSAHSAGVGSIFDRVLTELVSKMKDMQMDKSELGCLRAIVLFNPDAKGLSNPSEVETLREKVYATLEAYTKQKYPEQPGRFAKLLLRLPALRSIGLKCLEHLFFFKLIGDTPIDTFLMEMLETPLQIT

[3] = biological target: T3, Retinoic acid receptor RXR-beta (Homo sapiens, UniProt P28702); assay: Agonist activity at human GAL4-fused RXRbeta LBD expressed in human HEK293T cells cotransfected with pFR-Luc and pRL-SV40 assessed as increase in luciferase activity incubated for 16 hrs by Dual-Glo luciferase assay; format: cell-based
T3 sequence (P28702 whole entry): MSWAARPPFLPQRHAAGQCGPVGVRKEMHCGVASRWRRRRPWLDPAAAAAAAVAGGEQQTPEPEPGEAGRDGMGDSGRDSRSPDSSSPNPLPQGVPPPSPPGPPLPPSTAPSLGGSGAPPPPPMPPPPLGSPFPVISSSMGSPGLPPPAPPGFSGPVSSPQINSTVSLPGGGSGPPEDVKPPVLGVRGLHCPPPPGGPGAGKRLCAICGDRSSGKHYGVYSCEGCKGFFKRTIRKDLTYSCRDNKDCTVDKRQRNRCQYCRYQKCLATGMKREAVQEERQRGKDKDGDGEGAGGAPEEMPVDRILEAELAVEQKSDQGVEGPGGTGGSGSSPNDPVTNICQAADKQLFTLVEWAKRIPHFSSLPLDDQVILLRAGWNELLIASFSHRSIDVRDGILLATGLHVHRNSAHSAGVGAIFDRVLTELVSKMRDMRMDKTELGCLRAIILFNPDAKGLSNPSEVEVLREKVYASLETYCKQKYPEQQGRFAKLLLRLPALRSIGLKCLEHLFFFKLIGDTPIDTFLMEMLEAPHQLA

HEK-293T [4] = assay: Cytotoxicity in human HEK293T cells coexpressing GAL4-fused RXRalpha LBD, pFR-Luc and pRL-SV40 assessed as reduction in cell viability at > 10 uM incubated for 16 hrs by Dual-Glo luciferase assay; format: toxicity, cell-based
HEK-293T [5] = assay: Cytotoxicity in human HEK293T cells coexpressing GAL4-fused RXRbeta LBD, pFR-Luc and pRL-SV40 assessed as reduction in cell viability at > 10 uM incubated for 16 hrs by Dual-Glo luciferase assay; format: toxicity, cell-based
HEK-293T [6] = assay: Cytotoxicity in human HEK293T cells coexpressing GAL4-fused RXRgamma LBD, pFR-Luc and pRL-SV40 assessed as reduction in cell viability at > 10 uM incubated for 16 hrs by Dual-Glo luciferase assay; format: toxicity, cell-based
PXR (NR1I2) [7] = biological target: T4, PXR (NR1I2) (Homo sapiens, UniProt O75469); assay: Agonist activity at human GAL4-fused PXR LBD expressed in human HEK293T cells cotransfected with pFR-Luc and pRL-SV40 assessed as increase in luciferase activity at 30 uM incubated for 16 hrs by Dual-Glo luciferase assay relative to control; format: cell-based; conditions: HEK293T cells expressing GAL4-fused PXR LBD, read-out: Activity
T4 sequence (O75469 whole entry): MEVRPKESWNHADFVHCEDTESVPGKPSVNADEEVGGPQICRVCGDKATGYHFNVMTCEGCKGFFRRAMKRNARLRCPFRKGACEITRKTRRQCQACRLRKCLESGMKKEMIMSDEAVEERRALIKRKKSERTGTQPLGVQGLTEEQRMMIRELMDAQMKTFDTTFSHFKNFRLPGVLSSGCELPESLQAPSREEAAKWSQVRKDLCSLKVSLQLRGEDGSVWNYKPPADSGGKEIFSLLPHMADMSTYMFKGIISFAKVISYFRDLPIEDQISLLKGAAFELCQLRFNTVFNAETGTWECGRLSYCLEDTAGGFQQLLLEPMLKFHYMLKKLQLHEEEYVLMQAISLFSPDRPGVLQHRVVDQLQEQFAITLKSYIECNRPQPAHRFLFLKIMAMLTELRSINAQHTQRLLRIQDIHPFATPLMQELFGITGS

CAR (NR1I3) [8] = biological target: T5, CAR (NR1I3) (Homo sapiens, UniProt Q14994); assay: Agonist activity at human GAL4-fused CAR LBD expressed in human HEK293T cells cotransfected with pFR-Luc and pRL-SV40 assessed as increase in luciferase activity at 30 uM incubated for 16 hrs by Dual-Glo luciferase assay relative to control; format: cell-based; conditions: HEK293T cells expressing GAL4-fused CAR LBD, read-out: Activity
T5 sequence (Q14994 whole entry): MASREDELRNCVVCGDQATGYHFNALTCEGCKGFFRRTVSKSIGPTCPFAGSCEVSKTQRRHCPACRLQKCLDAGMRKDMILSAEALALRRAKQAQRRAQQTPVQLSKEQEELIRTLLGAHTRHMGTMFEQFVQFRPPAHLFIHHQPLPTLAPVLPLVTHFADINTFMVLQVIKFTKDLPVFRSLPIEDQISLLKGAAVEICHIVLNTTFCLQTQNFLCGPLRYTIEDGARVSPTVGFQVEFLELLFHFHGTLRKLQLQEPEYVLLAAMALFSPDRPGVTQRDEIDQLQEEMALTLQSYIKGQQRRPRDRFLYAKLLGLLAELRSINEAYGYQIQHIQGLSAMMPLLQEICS

[9] = biological target: T2, Retinoic acid receptor RXR-gamma; assay: Binding affinity to human RXRgamma LBD and measured for 180 sec by ITC analysis
PXR (NR1I2) [10] = biological target: T4, PXR (NR1I2); assay: Agonist activity at human GAL4-fused PXR LBD expressed in human HEK293T cells cotransfected with pFR-Luc and pRL-SV40 assessed as increase in luciferase activity at 1 uM incubated for 16 hrs by Dual-Glo luciferase assay relative to control; format: cell-based; conditions: HEK293T cells expressing GAL4-fused PXR LBD, read-out: Activity
CAR (NR1I3) [11] = biological target: T5, CAR (NR1I3); assay: Agonist activity at human GAL4-fused CAR LBD expressed in human HEK293T cells cotransfected with pFR-Luc and pRL-SV40 assessed as increase in luciferase activity at 1 uM incubated for 16 hrs by Dual-Glo luciferase assay relative to control; format: cell-based; conditions: HEK293T cells expressing GAL4-fused CAR LBD, read-out: Activity
[12] = biological target: T1, Retinoic acid receptor RXR-alpha; assay: Binding affinity to human RXRalpha LBD and measured for 180 sec by ITC analysis

Compound	pEC50 [1]	pEC50 [2]	pEC50 [3]	further results
O=C(O)c1ccc(CNc2cccc3c2CCC3)cc1	5.51	4.89		
Cc1ccc(COc2ccc(C)c3c2CCC3)cc1CC(=O)O				Activity (HEK-293T [4]): Toxic; Activity (HEK-293T [5]): Toxic; Activity (HEK-293T [6]): Toxic
O=C(O)CCc1ccc(COc2cccc3c2CCC3)cc1	6.22	5.59		
CC1=C2[C@H](/C=C(\C)C(=O)O)CC[C@@H](C)[C@H]2CC1 [VALERENIC ACID]			5.30	
Cc1ccc(OCc2ccc(CCC(=O)O)cc2)c2c1CCC2			5.96	
Cc1ccc(OCc2ccc(C(=O)O)cc2)c2c1CCC2		5.30		
Cc1ccc(OCc2ccc(CCC(=O)O)c(F)c2)c2c1CCC2		4.85		activity at 16 h, 30 µM (PXR (NR1I2) [7]): 15%; activity at 16 h, 30 µM (CAR (NR1I3) [8]): 9%; pKd [9]: 5.22
Cc1cc(COc2cccc3c2CCC3)ccc1CC(=O)O	4.37		4.37	
O=C(O)c1ccc(COc2cccc3c2CCC3)cc1F	6.10			
Cc1ccc(COc2cccc3c2CCC3)cc1CC(=O)O				Activity (HEK-293T [4]): Toxic; Activity (HEK-293T [5]): Toxic; Activity (HEK-293T [6]): Toxic
Cc1ccc(OCc2ccc(CCC(=O)O)c(Cl)c2)c2c1CCC2	5.15	4.97	5.10	
Cc1cc(COc2ccc(C)c3c2CCC3)ccc1CCC(=O)O	6.44			activity at 16 h, 1 µM (PXR (NR1I2) [10]): 12%; activity at 16 h, 1 µM (CAR (NR1I3) [11]): 6%; pKd [12]: 6.70
CN(Cc1ccc(C(=O)O)cc1)c1cccc2c1CCC2	5.39	4.85		

More lines, main results first:

pEC50 [1]	pEC50 [2]	pEC50 [3]	Compound	further results
	4.96	5.54	Cc1ccc(OCc2ccc(C(=O)O)c(F)c2)c2c1CCC2	
4.64			Cc1cc(COc2cccc3c2CCC3)ccc1C(=O)O	
5.92		5.82	O=C(O)c1ccc(COc2cccc3c2CCC3)cc1	
5.62		5.60	Cc1ccc(OCc2ccc(CC(=O)O)cc2)c2c1CCC2	
5.15			O=C(O)c1cccc(COc2cccc3c2CCC3)c1	
5.66	4.96	5.55	O=C(O)CCc1ccc(COc2cccc3c2CCC3)cc1F	
